Source: ChEMBL document CHEMBL4385607, “Structure- and Ligand-Based Discovery of Chromane Arylsulfonamide Nav1.7 Inhibitors for the Treatment of Chronic Pain” (J Med Chem, 2019)

Tests used:
[1] = Lipophilicity, log D of compound at pH 7.4; type: physicochemical; settings: buffer
[2] = Dissociation constant, basic pKa of compound; type: physicochemical
[3] = Drug level in plasma of FVB transgenic mouse model of inherited erythromelalgia xenografted with human HEK293 cells harboring I848T mutation at 15 mg/kg, po measured after 70 mins by LC-MS/MS analysis; type: ADME, organism-based
[4] = Drug level in plasma of FVB transgenic mouse model of inherited erythromelalgia xenografted with human HEK293 cells harboring I848T mutation at 50 mg/kg, po measured after 70 mins by LC-MS/MS analysis; type: ADME, organism-based
[5] = Dissociation constant, acidic pKa of compound by spectrophotometric method; type: physicochemical
[6] = Clearance in human hepatocytes at 1 uM measured up to 3 hrs by LC-MS/MS analysis; type: ADME, cell-based, Hepatocyte
[7] = Clearance in Sprague-Dawley rat hepatocytes at 1 uM measured up to 3 hrs by LC-MS/MS analysis; type: ADME, cell-based, Hepatocyte
[8] = Plasma clearance in Sprague-Dawley rat at 1 mg/kg, iv measured up to 8 hrs by LC-MS/MS analysis; type: ADME, organism-based
[9] = Blood clearance in FVB mouse at 1 mg/kg, iv measured upto 6 hrs by LC-MS/MS analysis; type: ADME, organism-based; settings: whole blood
[10] = Volume of distribution at steady state in FVB mouse at 1 mg/kg, iv measured upto 6 hrs by LC-MS/MS analysis; type: ADME, organism-based; settings: in vivo, read-out: Vdss
[11] = Volume of distribution at steady state in Sprague-Dawley rat at 1 mg/kg, iv measured upto 8 hrs by LC-MS/MS analysis; type: ADME, organism-based; settings: in vivo, read-out: Vdss
[12] = Ratio of drug uptake in Sprague-Dawley rat liver to plasma at 5 mg/kg, po measured up to 8 hrs by LC-MS/MS analysis; type: ADME, organism-based
[13] = Drug metabolism in human hepatocytes assessed as oxidation of arene ring at 1 uM measured up to 3 hrs by LC-MS/MS analysis; type: ADME, cell-based, Hepatocyte
[14] = Drug excretion in Sprague-Dawley rat bile at 1 mg/kg, iv or 5 mg/kg, po measured up to 8 hrs by LC-MS/MS analysis; type: ADME, organism-based; settings: in vivo
[15] = Volume of distribution at steady state in Beagle dog at 0.5 mg/kg, iv administered as single dose measured upto 24 hrs by LC-MS/MS analysis; type: ADME, organism-based, Canis lupus familiaris; settings: in vivo, read-out: Vdss
[16] = Plasma clearance in Beagle dog at 0.5 mg/kg, iv administered as single dose measured upto 24 hrs by LC-MS/MS analysis; type: ADME, organism-based, Canis lupus familiaris
[17] = Plasma clearance in cynomolgus monkey at 0.5 mg/kg, iv administered as single dose measured upto 24 hrs by LC-MS/MS analysis; type: ADME, organism-based, Macaca fascicularis
[18] = Volume of distribution at steady state in cynomolgus monkey at 0.5 mg/kg, iv administered as single dose measured upto 24 hrs by LC-MS/MS analysis; type: ADME, organism-based, Macaca fascicularis; settings: in vivo, read-out: Vdss
[19] = Half life in Sprague-Dawley rat at 1 mg/kg, iv measured upto 8 hrs by LC-MS/MS analysis; type: ADME, organism-based; settings: in vivo
[20] = Half life in Beagle dog at 0.5 mg/kg, iv administered as single dose measured upto 24 hrs by LC-MS/MS analysis; type: ADME, organism-based, Canis lupus familiaris; settings: in vivo
[21] = Half life in cynomolgus monkey at 0.5 mg/kg, iv administered as single dose measured upto 24 hrs by LC-MS/MS analysis; type: ADME, organism-based, Macaca fascicularis; settings: in vivo
[22] = Oral bioavailability in Sprague-Dawley rat at 5 mg/kg measured upto 8 hrs by LC-MS/MS analysis; type: ADME, organism-based; settings: in vivo
[23] = Oral bioavailability in Beagle dog at 0.5 mg/kg administered as single dose measured upto 24 hrs by LC-MS/MS analysis; type: ADME, organism-based, Canis lupus familiaris; settings: in vivo
[24] = Oral bioavailability in cynomolgus monkey at 0.5 mg/kg administered as single dose measured upto 24 hrs by LC-MS/MS analysis; type: ADME, organism-based, Macaca fascicularis; settings: in vivo
[25] = Clearance in Sprague-Dawley rat at 1 mg/kg, iv measured upto 8 hrs by LC-MS/MS analysis relative to hepatic blood flow; type: ADME, organism-based; settings: in vivo
[26] = Clearance in cynomolgus monkey at 0.5 mg/kg, iv administered as single dose measured upto 24 hrs by LC-MS/MS analysis relative to hepatic blood flow; type: ADME, organism-based, Macaca fascicularis; settings: in vivo
[27] = Clearance in Beagle dog at 0.5 mg/kg, iv administered as single dose measured upto 24 hrs by LC-MS/MS analysis relative to hepatic blood flow; type: ADME, organism-based, Canis lupus familiaris; settings: in vivo

Row | logD [1] | CLhep predicted at 1 µM [6] [mL/min/kg] | CLhep predicted at 1 µM [7] [mL/min/kg] | clearance [8] [mL/min/kg] | SMILES | other results
1 | 2.7 | – | – | – | O=S(=O)(Nc1ncns1)c1cc(F)c(CN2CC[C@H](C(F)(F)F)C[C@@H]2c2ccccc2)cc1F | pKa [2]: 5.5; concentration at 70 min [3]: 33 µM; concentration at 70 min [4]: 58 µM
2 | 3.2 | 11 | 17 | 62 | O=S(=O)(Nc1ncns1)c1ccc2c(c1)OCC[C@@H]2N1CC[C@H](C(F)(F)F)C[C@@H]1c1ccc(F)cc1 | pKa [5]: 3.26; clearance [9]: 46 mL/min/kg; Vd [10]: 4.8 L/kg; Vd [11]: 23 L/kg; Kp at 8 h [12]: 202; Drug metabolism [13]: Metabolite_Notdetected; Drug excretion [14]: Active
3 | 0.9 | 12 | 12 | 62 | O=S(=O)(Nc1ccncn1)c1cc2c(cc1F)[C@@H](N1CC[C@H](C(F)(F)F)C[C@@H]1c1cnco1)CCO2 | –
4 | 0.9 | 14 | 14 | 42 | Cn1nccc1[C@H]1C[C@@H](C(F)(F)F)CCN1[C@H]1CCOc2cc(S(=O)(=O)Nc3ccncn3)c(F)cc21 | –
5 | 0.2 | < 6.2 | < 10 | – | O=S(=O)(Nc1ccncn1)c1cc2c(cc1F)[C@@H](N1CC[C@H](C(F)(F)F)C[C@@H]1c1ccnnc1)CCO2 | –
6 | 1.4 | < 6.2 | 17 | 14 to 15 | O=S(=O)(Nc1ccncn1)c1cc2c(cc1F)[C@@H](N1CC[C@H](C(F)(F)F)C[C@@H]1c1ccccn1)CCO2 | Vd [15]: 0.74 L/kg; Vd [11]: 1.2 L/kg; clearance [16]: 2.4 mL/min/kg; clearance [17]: 19 mL/min/kg; Vd [18]: 0.66 L/kg; half-life [19]: 1.7 h; half-life [20]: 4.3 h; half-life [21]: 2.1 h; bioavailability [22]: 73%; bioavailability [23]: 32%; bioavailability [24]: 18%; clearance [25]: 8 to 44%; clearance [26]: 8 to 44%; clearance [27]: 8 to 44%
7 | 1.3 | 8.2 | 41 | 46 | Cn1ccc([C@H]2C[C@@H](C(F)(F)F)CCN2[C@H]2CCOc3cc(S(=O)(=O)Nc4ccncn4)c(F)cc32)n1 | –
8 | 0.5 | 9 | 25 | 42 | O=S(=O)(Nc1ccncn1)c1cc2c(cc1F)[C@@H](N1CC[C@H](C(F)(F)F)C[C@@H]1c1cnccn1)CCO2 | –
9 | 0.6 | 7.8 | 16 | – | O=S(=O)(Nc1ccncn1)c1cc2c(cc1F)[C@@H](N1CC[C@H](C(F)(F)F)C[C@@H]1c1ccncn1)CCO2 | –
10 | 1.3 | 9.1 | 15 | 93 | O=S(=O)(Nc1ccncn1)c1cc2c(cc1F)[C@@H](N1CC[C@H](C(F)(F)F)C[C@@H]1c1cc[nH]n1)CCO2 | –
11 | 1.2 | 13 | 13 | 82 | O=S(=O)(Nc1ccncn1)c1cc2c(cc1F)[C@@H](N1CC[C@H](C(F)(F)F)C[C@@H]1c1ccncc1)CCO2 | –
12 | 1.1 | 12 | 18 | 161 | O=S(=O)(Nc1ccncn1)c1cc2c(cc1F)[C@@H](N1CC[C@H](C(F)(F)F)C[C@@H]1c1cn[nH]c1)CCO2 | –
13 | 1.9 | – | – | – | O=S(=O)(Nc1ncns1)c1cc(F)c(CN2CCCC[C@H]2c2ccccc2)cc1F | –
14 | 4.3 | < 6.2 | < 10 | 0.71 | O=S(=O)(Nc1cccnn1)c1cc2c(cc1F)[C@@H](N1CC[C@H](C(F)(F)F)C[C@@H]1c1ccc(F)cc1)CCO2 | pKa [5]: 6.59
15 | 2.8 | < 6.2 | 13 | 2.1 | O=S(=O)(Nc1ccon1)c1cc2c(cc1F)[C@@H](N1CC[C@H](C(F)(F)F)C[C@@H]1c1ccc(F)cc1)CCO2 | pKa [5]: 4.49
16 | 3.2 | 7.7 | 14 | 0.78 to 0.8 | O=S(=O)(Nc1ccncn1)c1cc2c(cc1F)[C@@H](N1CC[C@H](C(F)(F)F)C[C@@H]1c1ccc(F)cc1)CCO2 | pKa [5]: 5.81; clearance [9]: 8.3 mL/min/kg; Vd [10]: 0.9 L/kg; Vd [11]: 0.7 L/kg; Kp at 8 h [12]: 4
17 | 3.5 | 11 | 32 | – | O=S(=O)(Nc1ncns1)c1ccc2c(c1)OCC[C@@H]2N1CC[C@H](C(F)(F)F)C[C@@H]1c1ccccc1 | –
18 | 1.9 | – | – | – | O=S(=O)(Nc1ncns1)c1cc(F)c(CN2CCCC[C@@H]2c2ccccc2)cc1F | –
19 | 2.7 | – | – | – | O=S(=O)(Nc1ncns1)c1cc(F)c(CN2CC[C@@H](C(F)(F)F)C[C@H]2c2ccccc2)cc1F | –
20 | 5 | < 6.2 | < 10 | 4.9 | O=S(=O)(Nc1ccc(F)cn1)c1cc2c(cc1F)[C@@H](N1CC[C@H](C(F)(F)F)C[C@@H]1c1ccc(F)cc1)CCO2 | pKa [5]: 8.22
21 | 1.3 | 15 | 26 | 101 | O=S(=O)(Nc1ccncn1)c1cc2c(cc1F)[C@@H](N1CC[C@H](C(F)(F)F)C[C@@H]1c1cccnc1)CCO2 | –
